Experimental data taken from ChEMBL document CHEMBL1201862, “PubChem BioAssay data set” (2004).
The source made the active and inactive calls.

Experiments:
[1] = MITF Orthogonal Assay: SK-MEL-5 CTG Assay Measured in Cell-Based System Using Plate Reader - 2084-02_Inhibitor_Dose_DryPowder_Activity_Set7.; assay type: functional
[2] = MITF: Counter assay: A375 proliferation Measured in Cell-Based System Using Plate Reader - 2084-03_Inhibitor_Dose_DryPowder_Activity_Set8.; assay type: functional; details: A-375
[3] = TRPM1 promoter luciferase reporter signal decrease, dose response, MITF inhibitor project, cell-based, SK-MEL-5, dry powder, set 8 (AID 624430); assay type: functional
[4] = cells; assay type: functional, cell-based; details: HEK-CNG
[5] = system: BJ; assay: cytotoxicity toward BJ-TERT-LT-ST fibroblasts, dose response, cell-based, RAS-independent, luminescence (AID 1935); assay type: functional; details: Homo sapiens;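 further: BJ fibroblasts immortalized with TERT plus LT and ST oncogenes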
[6] = cytotoxicity toward DRD oncogenic fibroblasts, dose response, cell-based, non-viral oncogenic, luminescence (AID 1934); assay type: functional; details: Homo sapiens
[7] = HepG2 cell cytotoxicity, dose response, cytotoxicity control, ATP luminescence, cherry-pick, set 6 (AID 1053125); assay type: functional, cell-based
[8] = cells; details: HEK293
[9] = cells; details: A549
[10] = system: BJ; assay: cytotoxicity toward BJ-TERT fibroblasts, dose response, cell-based, RAS-independent, luminescence (AID 1933); assay type: functional; details: Homo sapiens
[11] = target: T1, Leucine aminopeptidase (Plasmodium falciparum 3D7, UniProt Q8IL11); assay: P. falciparum M17LAP inhibitors, primary screen, biochemical, fluorogenic H-Leu-NHMec substrate, 1536-well (AID 1619); assay type: functional
T1 sequence (Q8IL11 whole entry): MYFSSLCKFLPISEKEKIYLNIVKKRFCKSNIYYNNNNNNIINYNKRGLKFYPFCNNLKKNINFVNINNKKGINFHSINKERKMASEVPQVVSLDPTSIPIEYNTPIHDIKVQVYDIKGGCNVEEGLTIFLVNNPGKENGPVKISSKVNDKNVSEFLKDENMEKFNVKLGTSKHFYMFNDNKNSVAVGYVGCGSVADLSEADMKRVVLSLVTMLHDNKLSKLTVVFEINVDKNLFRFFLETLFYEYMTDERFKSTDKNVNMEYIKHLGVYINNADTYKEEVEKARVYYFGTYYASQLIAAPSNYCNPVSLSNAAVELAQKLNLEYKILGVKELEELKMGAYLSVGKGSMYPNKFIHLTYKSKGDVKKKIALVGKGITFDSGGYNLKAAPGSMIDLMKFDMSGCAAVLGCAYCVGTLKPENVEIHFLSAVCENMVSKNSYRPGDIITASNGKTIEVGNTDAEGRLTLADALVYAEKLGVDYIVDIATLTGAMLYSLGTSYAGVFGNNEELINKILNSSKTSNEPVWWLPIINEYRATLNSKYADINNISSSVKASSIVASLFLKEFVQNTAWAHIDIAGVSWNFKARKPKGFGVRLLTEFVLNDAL

[12] = target: T2, Galanin receptor type 3 (Homo sapiens, UniProt O60755); assay: Fluorescence-based cell-based primary high throughput dose response assay to identify antagonists of the Galanin Receptor 3 (GalR3).; assay type: functional
T2 sequence (O60755 whole entry): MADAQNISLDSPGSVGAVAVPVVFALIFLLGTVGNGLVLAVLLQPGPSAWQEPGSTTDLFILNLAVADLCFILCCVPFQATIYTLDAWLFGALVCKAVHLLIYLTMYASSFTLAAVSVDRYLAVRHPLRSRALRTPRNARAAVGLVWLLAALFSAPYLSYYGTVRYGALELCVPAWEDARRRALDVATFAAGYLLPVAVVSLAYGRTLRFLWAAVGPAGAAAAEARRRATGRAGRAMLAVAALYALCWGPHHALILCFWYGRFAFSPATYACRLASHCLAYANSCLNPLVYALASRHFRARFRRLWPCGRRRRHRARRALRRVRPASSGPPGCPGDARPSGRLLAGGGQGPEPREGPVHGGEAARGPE

[13] = system: BJ; assay: cells; assay type: functional, cell-based; details: Homo sapiens
[14] = NIH:OVCAR-3 ovarian cancer cell cytotoxicity, dose response, PAX8 inhibitor project, plate reader, dry powder samples (AID 743044); assay type: functional, cell-based
[15] = target: Paired box protein Pax-8 (Homo sapiens, UniProt Q06710); assay: inhibitors of PAX8-driven TPO luciferase reporter, dose response, RMG-I cells, cherry-pick (AID 687027); assay type: functional, cell-based;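 further: luciferase reporter driven by Pax8 target thyroperoxidase promoter measured by SteadyGlo luminescence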
[16] = IGROV1 ovarian cancer cell cytotoxicity, dose response, PAX8 inhibitor project, plate reader, dry powder samples (AID 743043); assay type: functional, cell-based; details: IGROV-1
[17] = IOSE-T80 ovarian epithelial cell cytotoxicity, dose response, cytotoxicity control for PAX8 inhibitor project, plate reader, dry powder samples (AID 743045); assay type: functional, cell-based
[18] = cytotoxicity in OVCAR8 ovarian cancer cells, dose response, PAX8 project, cell-based, plate reader, dry powder samples (AID 743197); assay type: functional; details: OVCAR-8
[19] = target: Disintegrin and metalloproteinase domain-containing protein 17 (Homo sapiens, UniProt P78536); assay: ADAM17 protease inhibitors, dose response, counter-screen for ADAM10 exosite inhibitor project, biochemical, quenched FRET substrate (AID 743253)
[20] = ADAM10 inhibitors, peptide cleavage, dose response, biochemical, QFRET (AID 743254);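 further: ADAM10 enzyme with the DM2 quenched FRET peptide as substrate; EDANS fluorescence gain as the protease cuts the substrate; inhibitor potency against ADAM10 proteolytic activity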
[21] = cells; assay type: functional, cell-based
[22] = cells; assay type: functional, cell-based; remark: listed apart in the source
[23] = Late stage counterscreen for inhibitors of Trypanosoma brucei methionyl tRNA synthetase (MetRS): Luminescence-based cell-based high throughput dose response assay to identify compounds that are cytotoxic to Jurkat human T lymphocyte cells.; assay type: functional
[24] = target: T3, Methionyl-tRNA synthetase, putative (Trypanosoma brucei brucei, UniProt Q38C91); assay type: functional, Trypanosoma brucei brucei strain 927/4 GUTat10.1
T3 sequence (Q38C91 whole entry): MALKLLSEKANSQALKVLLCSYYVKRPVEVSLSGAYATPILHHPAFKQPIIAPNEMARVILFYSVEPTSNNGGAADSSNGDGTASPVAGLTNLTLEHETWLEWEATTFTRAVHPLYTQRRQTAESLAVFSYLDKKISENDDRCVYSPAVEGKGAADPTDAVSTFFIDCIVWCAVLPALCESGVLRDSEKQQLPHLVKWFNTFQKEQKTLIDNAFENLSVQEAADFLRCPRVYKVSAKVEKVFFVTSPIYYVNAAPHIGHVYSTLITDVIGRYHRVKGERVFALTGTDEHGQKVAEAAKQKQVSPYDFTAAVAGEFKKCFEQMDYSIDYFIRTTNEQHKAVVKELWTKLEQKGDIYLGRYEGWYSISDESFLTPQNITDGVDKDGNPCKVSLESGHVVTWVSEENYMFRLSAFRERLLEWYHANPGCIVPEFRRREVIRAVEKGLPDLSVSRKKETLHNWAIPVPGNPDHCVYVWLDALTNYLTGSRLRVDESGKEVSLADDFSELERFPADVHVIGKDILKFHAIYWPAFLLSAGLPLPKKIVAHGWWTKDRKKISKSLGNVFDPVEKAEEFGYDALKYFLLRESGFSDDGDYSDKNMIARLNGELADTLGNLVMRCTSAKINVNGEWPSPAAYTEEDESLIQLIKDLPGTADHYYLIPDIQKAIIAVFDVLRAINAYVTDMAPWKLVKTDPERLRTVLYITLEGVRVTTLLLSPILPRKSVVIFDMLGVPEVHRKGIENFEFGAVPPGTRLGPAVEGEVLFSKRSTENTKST

[25] = target: T3, Methionyl-tRNA synthetase, putative; assay type: functional, Trypanosoma brucei brucei strain 927/4 GUTat10.1; remark: listed apart in the source
[26] = Counterscreen for inhibitors of Trypanosoma brucei methionyl tRNA synthetase (MetRS): Luminescence-based cell-based high throughput dose response assay to identify compounds that are cytotoxic to Jurkat human T lymphocyte cells.; assay type: functional
[27] = reduction of Shn3 3'UTR firefly luciferase signal, dose response, Schnurri-3 inhibitor project, cell-based, Clone20 osteoblasts, cherry-pick, set 2 (AID 720490); assay type: functional;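 further: actives lower the luminescence signal as inhibitors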
[28] = system: Streptococcus sp. 'group A'; assay: growth inhibition of control SK(-) GAS strain, dose response, counter-screen for streptokinase expression inhibitor project, luminescence, kanamycin, BacTiterGlo, confirmation (AID 1900); assay type: functional, organism-based
[29] = Luminescence Cell-Based Dose Retest to Confirm Inhibitors of Cancer Stem Cells. [Related pubchem assays (depositor defined):AID2717, AID2721]; assay type: functional, Homo sapiens; details: Homo sapiens
[30] = inhibitors of control Renilla luciferase reporter, dose response, counter-screen for Shn3 3'UTR targeting project, Clone20-Shn3RL cells, dual-Glo, cherry-pick, set 2 (AID 720724); assay type: functional, cell-based; details: Dual-Go Shn3RL
[31] = target: T4, Heat shock factor protein 1 (Mus musculus, UniProt P38532); assay: inhibition of MG132-induced HSE-luciferase signal, confirmation, cell-based, NIH3T3, luminescence, dose retest (AID 2382); assay type: functional;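 further: NIH3T3 fibroblasts with HSF1-driven luciferase reporter stressed by proteasome inhibitor MG132; luminescence from HSF1-driven luciferase expression after 8 hours of MG132 stress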
T4 sequence (P38532 whole entry): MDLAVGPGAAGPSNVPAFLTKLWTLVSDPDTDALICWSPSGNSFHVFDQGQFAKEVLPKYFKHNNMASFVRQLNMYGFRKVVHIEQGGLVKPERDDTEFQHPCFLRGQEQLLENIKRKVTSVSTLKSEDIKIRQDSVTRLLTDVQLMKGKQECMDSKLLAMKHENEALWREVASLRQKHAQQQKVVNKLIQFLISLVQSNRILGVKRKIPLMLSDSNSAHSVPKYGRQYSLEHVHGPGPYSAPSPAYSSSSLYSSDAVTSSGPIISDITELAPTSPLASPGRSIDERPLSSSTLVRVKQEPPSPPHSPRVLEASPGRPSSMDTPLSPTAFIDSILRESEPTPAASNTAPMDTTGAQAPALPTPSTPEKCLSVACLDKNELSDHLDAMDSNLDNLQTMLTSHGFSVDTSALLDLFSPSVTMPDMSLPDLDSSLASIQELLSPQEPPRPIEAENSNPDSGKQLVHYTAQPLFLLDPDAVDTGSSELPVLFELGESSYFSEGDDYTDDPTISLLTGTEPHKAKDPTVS

[32] = Shn3 3'UTR reporter inhibitors, dose response, cell-based, Clone20 osteoblasts, firefly luciferase, cherry-picked (AID 624132); assay type: functional;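 further: firefly luciferase luminescence from reporter carrying the Shn3 3'UTR in osteoblasts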
[33] = system: Streptococcus; assay: Group A Streptococcus viability loss, dose response, counter-screen for streptokinase expression inhibitor project, luminescence, BacTiterGlo (AID 1915); assay type: functional, organism-based;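 further: potency for reduction of bacterial viability or growth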
[34] = system: INS1; assay: beta cell apoptosis inhibitors, cytokine rescue, dose response, luminescence, retest (AID 449756); assay type: functional, cell-based; details: Rattus norvegicus;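 further: cell death triggered by IL-1 beta plus TNF-alpha plus IFN-gamma mixture; protective hits raise ATP signal compared with cytokine alone wells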
[35] = system: Vero; assay: cells; assay type: functional; details: Chlorocebus sabaeus
[36] = system: Vero; assay: cells; assay type: functional, cell-based; details: Chlorocebus sabaeus
[37] = A Cell-Based Confirmatory Screen for Compounds that Inhibit VEEV, TC-83 (2).; assay type: functional
[38] = A Cell-Based Counter Screen testing Compounds that Inhibit VEEV TC-83, in strain KU V3526.; assay type: functional
[39] = A Cell-Based Confirmatory Screen for Compounds that Inhibit VEEV, TC-83 (8).; assay type: functional
[40] = inhibitors of non-replicating M. tuberculosis, dose response, luciferase, dry powder (AID 651619); assay type: functional; details: Mycobacterium tuberculosis
[41] = inhibitors of non-replicating M. tuberculosis, dose response, luciferase, dry powder (AID 651620); assay type: functional; details: Mycobacterium tuberculosis

Sequence of Paired box protein Pax-8 (Q06710 whole entry): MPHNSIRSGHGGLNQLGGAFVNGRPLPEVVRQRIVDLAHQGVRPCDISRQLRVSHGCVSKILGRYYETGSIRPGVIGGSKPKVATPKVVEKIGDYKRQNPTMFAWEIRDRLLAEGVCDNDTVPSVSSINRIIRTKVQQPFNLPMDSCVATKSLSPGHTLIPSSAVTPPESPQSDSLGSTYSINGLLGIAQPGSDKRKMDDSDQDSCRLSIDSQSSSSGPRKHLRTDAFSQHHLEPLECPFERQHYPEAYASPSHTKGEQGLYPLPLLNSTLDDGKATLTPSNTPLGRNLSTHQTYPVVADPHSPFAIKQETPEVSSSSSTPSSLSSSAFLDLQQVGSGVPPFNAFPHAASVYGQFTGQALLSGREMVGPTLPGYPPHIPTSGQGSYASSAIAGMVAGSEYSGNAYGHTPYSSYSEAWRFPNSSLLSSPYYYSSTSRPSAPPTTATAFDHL
Sequence of Disintegrin and metalloproteinase domain-containing protein 17 (P78536 whole entry, the tested form may be a part): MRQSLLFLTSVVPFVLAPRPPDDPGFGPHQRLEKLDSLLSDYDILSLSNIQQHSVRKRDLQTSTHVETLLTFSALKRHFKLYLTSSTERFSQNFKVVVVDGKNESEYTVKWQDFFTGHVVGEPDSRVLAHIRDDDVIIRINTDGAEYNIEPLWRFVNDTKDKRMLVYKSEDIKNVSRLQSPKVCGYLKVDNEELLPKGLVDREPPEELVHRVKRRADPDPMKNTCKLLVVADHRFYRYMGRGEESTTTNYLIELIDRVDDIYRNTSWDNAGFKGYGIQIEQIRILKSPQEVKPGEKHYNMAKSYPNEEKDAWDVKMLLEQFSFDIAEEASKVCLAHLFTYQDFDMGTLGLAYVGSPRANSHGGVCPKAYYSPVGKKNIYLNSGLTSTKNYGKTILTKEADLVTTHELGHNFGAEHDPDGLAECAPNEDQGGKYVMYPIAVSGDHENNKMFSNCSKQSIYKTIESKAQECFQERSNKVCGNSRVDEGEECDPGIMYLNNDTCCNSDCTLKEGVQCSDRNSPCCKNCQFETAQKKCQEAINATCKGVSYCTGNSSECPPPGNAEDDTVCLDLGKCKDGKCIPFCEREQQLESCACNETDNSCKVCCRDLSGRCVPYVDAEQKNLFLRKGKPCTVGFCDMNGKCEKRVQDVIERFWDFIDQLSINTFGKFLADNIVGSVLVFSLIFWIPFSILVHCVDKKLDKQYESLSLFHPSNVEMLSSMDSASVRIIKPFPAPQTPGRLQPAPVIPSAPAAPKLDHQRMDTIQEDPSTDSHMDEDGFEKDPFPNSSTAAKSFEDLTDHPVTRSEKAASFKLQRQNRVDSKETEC

In the case of `O=C1C(Nc2cccc(Cl)c2)=C(N2CCCCC2)C(=O)c2ccccc21`, the AC50 [1] was 15.7 µM (active), the AC50 [2] was 50.1 µM (active) and the AC50 [3] was 3.46 µM (active).
With `COc1ccc(N2C(C)=CC(=Cc3sc4ccccc4[n+]3C)C=C2C)cc1` the EC50 [4] was > 29.9 µM (inactive), the EC50 [5] was 4 µM (inconclusive) and the EC50 [6] was 2.06 µM (inconclusive). For the same compound, the AC50 [7] was 14.3 µM (active), the AC50 [8] was 3.36 µM (active) and the AC50 [9] was 0.315 µM (active). For the same compound, the EC50 [10] was 0.359 µM (inconclusive), the IC50 [11] was 60.3 µM (active) and the IC50 [12] was 0.246 µM (active). For the same compound, the EC50 [13] was 1.38 µM (active).
For `COc1cccc(S(=O)(=O)N2CC[C@@H]3[C@@H](CO)Nc4ccc(-c5ccccc5OC)cc4[C@@H]32)c1`, the AC50 [14] was 19.6 µM (active), the AC50 [15] was 10.6 µM (active) and the AC50 [16] was 36.5 µM (active). For the same compound, the AC50 [17] was 33 µM (active) and the AC50 [18] was 31.1 µM (active).
With `COc1ccc(S(=O)(=O)N2CCC(c3cc(-c4cccc5ccccc45)[nH]n3)CC2)cc1` the IC50 [19] was > 69.5 µM (inactive), the IC50 [20] was > 69.5 µM (inactive) and the EC50 [21] was > 350 µM (not active). The EC50 [22] was > 350 µM (not active).
For `CCO[C@H]1OC(C(=O)NCc2nc3ccccc3[nH]2)=C[C@@H](c2ccc(Br)cc2)[C@@H]1CCCO`, the IC50 [23] was 57 µM (inactive), the IC50 [24] was 8.41 µM (active) and the IC50 [25] was 5.73 µM (active). The IC50 [26] was 83.3 µM (inactive).
With `COc1c(CC=C(C)C)cc(C2CC(=O)c3c(O)cc(O)cc3O2)cc1CC=C(C)C` (stereo unspecified) the AC50 [27] was 2.82 µM (active), the EC50 [28] was 2.47 µM (active) and the AC50 [29] was 3.04 µM (active). The AC50 [30] was 24.6 µM (active), the EC50 [31] was 11.8 µM (active) and the AC50 [32] was 5.42 µM (active). The EC50 [33] was 3.2 µM (active) and the AC50 [34] was 4.52 µM (active).
In the case of `O=c1nc(Nc2ccc(OCc3ccccc3)cc2)sc2ncccc12`, the CC50 [35] was > 25 µM (active), the IC50 [36] was 2.86 µM (active) and the IC50 [37] was 2.79 µM (active). The IC50 [38] was 2.38 µM (active) and the IC50 [39] was 0.94 µM (active).
For `COc1ccccc1-c1nnc(SCc2ccccn2)o1`, the IC90 [40] was 31 µM (active) and the IC90 [41] was 31 µM (active).
